Test results from patent US5597822A, “Pharmaceutical compositions for the prevention and/or treatment a gastrointestinal diseases” (Egis Pharmaceutical, priority 1993, dated 1997).

Key:
[1] = tested on: gastric mucosa lesions induced by absolute ethanol; test: Gastroprotective activity, test with absolute ethanol (gastric mucosa erosions); format: in vivo, rat
Procedure: (§1) Rats of both sexes weighing 200 to 250 g, each previously starved for 24 hours, were used in this experiment. The lesions of gastric mucosa were induced by the oral administration of absolute ethanol in a dose of 1 ml/animal. After one hour following the administration, the animals were killed by an overdose of ether, the stomach was excised and the alterations of gastric mucosa were examined. The lengths of the erosions were measured and summarized (expressed in mm) for each stomach to obtain the erosion index by calculating the average value of the group. The inhibition was calculated in percentage by comparing the value of the group treated with ethanol to that of the control group treated only with the vehicle. Various doses of the compounds to be tested were administered, perorally, in a volume of 5 ml/kg using a pretreatment time of 60 minutes. Eight rats were used for each dose. /A. Robert, Gastroenterology 77, 761-767 (1979)/.
^x Relative activity = ED50 value of the gastric acid inhibition
related to the ED50 value of the inhibition of the gastric erosion.

gastric acid secretion = test: Effect on the gastric acid secretion (Shay's method, pylorus ligation); format: in vivo, Wistar rats; details: rat, p.o., test according to Shay
Procedure: The influence of the compounds on the gastric acid secretion was examined on starved Wistar rats of both sexes weighing 180 to 240 g each by using Shay's method /H. Shay et al., Gastroenterology, 5, 45 (1945)/. The compounds to be tested were given, perorally, 3 hours before the ligation of the pylorus. Four hours after the operation, the animals were killed by an overdose of ether, the stomach was excised, the stomach content was centrifuged and the free hydrochloric acid content of the gastric juice was determined by titration in the presence of Topfer's reagent. The percentage of inhibition and then the ED50 values were determined by calculating average values for the groups and comparing those to the average values for the control group.

[2] = tested on: gastric erosions induced by ethanol containing hydrochloric acid; test: Test with ethanol containing hydrochloric acid (gastric erosions); format: in vivo, rat; details: po; rat, p.o., HCl/absolute ethanol 1 to 50; erosion index; read-out: Inhibition of the erosion index, ED50 p.o.
Procedure: as §1
The principle of the method consists in that, simultaneously with the administration of absolute ethanol, hydrochloric acid is introduced to the stomach. Thus, the influence on systemic gastric acid inhibition action can be eliminated by the presence of the exogenous acid.
The reagent used in this test was a mixture of concentrated aqueous hydrochloric acid and absolute ethanol in a mass ratio of 1 to 50 in accordance with the dilution ratio used by Yamazaki et al., see Japan J. Pharmacol., 55, 415-424 (1991). Otherwise, the experiment was performed as described under test 2.1., however, in addition to the erosion index calculated from the lengths of the erosions in mm, the ratio of occurence of animals showing at least one gastric erosion within a test group, i.e. the erosion frequency, was also evaluated.

Helicobacter pylori = test: Antibacterial effect on Helicobacter pylori (MIC, blood agar); format: cell-based; details: for MIC: Helicobacter pylori, 72 h
Procedure: Helicobacter pylori strains used in these experiments were obtained from the biopsial samples of the stomachs of patients suffering from ulcerative diseases of the gastrointestinal system. From the pure culture of isolates a thick suspension was prepared with cysteine-inositol solution suitable for lyophilisation, and the suspension obtained was maintained in cold-resistant plastic ampoules in a deep-freezing chamber at a temperature of about -196 ° C. For the determination of the inhibitory effect of the compounds tested on Helicobacter pylori, blood agar containing 10 mg/liter of vancomycin and 25 mg/liter of amphotericin B was used /C. A. M. McNulty and I. C. Dent: Susceptibility of clinical isolates of Campylobacter pylori to twenty one antimicrobial agents. Book of Abstracts, 4th European Congress of Clinical Microbiology, Nice (1989)/.
The plates containing the strains were cultivated at 37° C. for 72 hours under a gaseous atmosphere containing 10 per cent of carbon dioxide and 5 per cent of oxygen /D. M. Jones et al., J. Clin. Pathol., 37, 1002 (1984)/.
The culture media were inoculated by diluting the broth culture of the strains grown overnight or with a suspension prepared from a culture obtained on a solid medium. About 10^5 of germs were applied to the surface of each plate.
A series of dilution were prepared from the compound to be-tested. The MIC (minimal inhibiting concentration) value of the compounds tested was considered to be the lowest concentration inhibiting the growth of the test organism completely.

MIC (Helicobacter pylori; Table IV, strains not specified, unit inferred): > 500 µg/mL
MIC (Helicobacter pylori; strain 867/90): > 500 µg/mL
MIC (Helicobacter pylori; strain 1596): > 500 µg/mL
MIC (Helicobacter pylori; strain 3842): > 500 µg/mL
MIC (Helicobacter pylori; strain 6656): > 500 µg/mL
MIC (Helicobacter pylori; strain 6709): > 500 µg/mL
Structure (SMILES): NC[C@H]1CC[C@H](C(=O)Oc2ccc(CCC(=O)O)cc2)CC1 [cetraxate, trans-3-[4-[4-(aminomethyl)cyclohexylcarbonyloxy]phenyl]-propionic acid, reference compound]
ED50 ([1]; po, rat, 60 min pretreatment, absolute ethanol 1 ml/animal, erosion index): 76.4 mg/kg
gastroprotective activity (in words) ([1]; test with absolute ethanol): nearly identical activity
gastric acid secretion inhibition (in words) (gastric acid secretion): only a moderate gastric acid secretion inhibition
ED50 [2]: 22 mg/kg
effect on Helicobacter pylori (in words) (Helicobacter pylori; Table IV): ineffective at the concentration indicated
